Tests used:
Pf rhomboid-3 = Pf rhomboid-3 cleavage of GFP-tagged Spitz co-expressed in COS cells (western blot); format: cell-based, Plasmodium falciparum; details: serum-free medium supplemented with inhibitor, substrate Spitz
Protocol: (§1) Plasmodium rhomboid activity was determined using published methods described in Urban et al Cell (2001) 107(2): 173-82 and WO02/093177. Briefly, Pf rhomboids-1 and -3 were co-expressed with GFP-tagged Spitz under control of a CMV promoter; as follows; COS cells were grown in DMEM medium (supplemented with 10% foetal calf serum), and transfected with FuGENE 6 Transfection Reagent (Roche). Cells were co-transfected in 35 mm culture wells with 25-250 ng of (a) rhomboid construct comprising the Pf-rhomboid-1 or -3 coding sequence inserted into the vector pcDNA 3.1+ (Invitrogen), and (b) substrate construct comprising the GFP-Spitz coding sequence inserted into pcDNA 3.1+ (Invitrogen). Empty plasmid was used to bring the total DNA to 1 μg per well. Construct (b) was transfected into COS cells in the absence of construct (a) as a control for endogenous cleavage of the substrate. 24-30 hours post-transfection, the medium was replaced with serum-free medium; this was harvested 24 hours later and cells were lysed in SDS-sample buffer. For some experiments, the serum-free medium was supplemented with the metalloprotease inhibitor batimastat (British Biotech) or ilomostat (Calbiochem) to minimize endogenous substrate cleavage in the assay. For inhibitor assays, a test compound may be included in the serum-free medium. […]

Pf rhomboid-1 = Pf rhomboid-1 cleavage of GFP-tagged Spitz co-expressed in COS cells (western blot); format: cell-based, Plasmodium falciparum; details: serum-free medium supplemented with inhibitor, substrate Spitz
Protocol: as §1

SMILES: CNC(=O)[C@H](Cc1ccccc1)NC(=O)[C@H](CC(C)C)[C@H](CSc1cccs1)C(=O)NO [batimastat]
- inhibition of Pf rhomboid-3 cleavage of Spitz (Pf rhomboid-3): not inhibited
- inhibition of Pf rhomboid-1 cleavage of Spitz (Pf rhomboid-1): not inhibited
